# Laboratory results from paper PMC6384738, “Structure-Function Studies of Polymyxin B Lipononapeptides” (Molecules, 2019).
# Where a SMILES comes first, the peptide text is derived from it. Bridges are numbered along the chain shown (N, C = ends). [ ]: non-standard residue; d: D form. The star is where a group is joined. Benzoyl(3-Ph) = O=C(c1cccc(-c2ccccc2)c1)*; Butanoyl(4-OPh) = O=C(CCCOc1ccccc1)*; dDab = NCC[C@@H](N)C(=O)O; hSer = N[C@@H](CCO)C(=O)O; Octanoyl = CCCCCCCC(=O)*; Dab = NCC[C@H](N)C(=O)O
# Legend:
# K. pneumoniae ATCC 13833 = assay: microbe, parasite or virus in culture; details: for MIC K. pneumoniae ATCC 13833: ATCC 13833, 18 h
# How it was run: (§1)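 Antibacterial activity: broth microdilution MIC (mg/L) against the reference isolate.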
# K. pneumoniae BAA 2146 = assay: microbe, parasite or virus in culture; details: for MIC K. pneumoniae BAA 2146: BAA 2146, 18 h
# How it was run: as §1
# E. coli ATCC 25922 = assay: microbe, parasite or virus in culture; details: ATCC 25922, 18 h
# How it was run: as §1
# A. baumannii ATCC 19606 = assay: microbe, parasite or virus in culture; details: for MIC A. baumannii ATCC 19606: ATCC 19606, 18 h
# How it was run: as §1
# [1] = system: K. pneumoniae ATCC 700603; assay: microbe, parasite or virus in culture; details: for MIC K. pneumoniae ATCC 700603: ATCC 700603, 18 h
# How it was run: as §1
# S. aureus ATCC 25923 = assay: microbe, parasite or virus in culture; details: for MIC S. aureus ATCC 25923: ATCC 25923, 18 h
# How it was run: as §1
# P. aeruginosa ATTC 27853 = assay: microbe, parasite or virus in culture; details: for MIC P. aeruginosa ATTC 27853: ATTC 27853, 18 h
# How it was run: as §1
# [2] = system: P. aeruginosa FADDI PA070; assay: microbe, parasite or virus in culture; details: for MIC P. aeruginosa FADDI PA070: FADDI PA070, 18 h
# How it was run: as §1
# in vitro = details: human
# How it was run: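 HK-2 cells seeded 2000 cells/well in DMEM/F12 with 10% FBS, grown 24 h, then exposed to compounds (300 µM to 2.3 µM, 2-fold series; colistin/polymyxin B 1 mM to 7.8 µM) for 24 h at 37 °C. LDH in medium read at 450 nm after 30 min; cytotoxicity % relative to 1% Triton X-100 and untreated cells.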
SMILES,MIC K. pneumoniae ATCC 13833 (K. pneumoniae ATCC 13833) [µg/mL],MIC K. pneumoniae BAA 2146 (K. pneumoniae BAA 2146) [µg/mL],MIC E. coli ATCC 25922 (E. coli ATCC 25922) [µg/mL],MIC A. baumannii ATCC 19606 (A. baumannii ATCC 19606) [µg/mL],MIC K. pneumoniae ATCC 700603 [1] [µg/mL],MIC S. aureus ATCC 25923 (S. aureus ATCC 25923) [µg/mL],MIC P. aeruginosa ATTC 27853 (P. aeruginosa ATTC 27853) [µg/mL],MIC P. aeruginosa FADDI PA070 [2] [µg/mL],"MIC (K. pneumoniae ATCC 13833; Klebsiella pneumoniae, ATCC13833, 18 h, read-out: MIC K. pneumoniae ATCC 13833) [µg/mL]","MIC (K. pneumoniae BAA 2146; Klebsiella pneumoniae, BAA2146, 18 h, read-out: MIC K. pneumoniae BAA 2146) [µg/mL]","MIC (A. baumannii ATCC 19606; Acinetobacter baumannii, ATCC19606, 18 h, read-out: MIC A. baumannii ATCC 19606) [µg/mL]","MIC ([1]; Klebsiella pneumoniae, ATCC700603, 18 h, read-out: MIC K. pneumoniae ATCC 700603) [µg/mL]","MIC (S. aureus ATCC 25923; Staphylococcus aureus, ATCC25923, 18 h, read-out: MIC S. aureus ATCC 25923) [µg/mL]","MIC (P. aeruginosa ATTC 27853; Pseudomonas aeruginosa, ATTC27853, 18 h, read-out: MIC P. aeruginosa ATTC 27853) [µg/mL]","MIC ([2]; Pseudomonas aeruginosa, FADDIPA070, 18 h, read-out: MIC P. aeruginosa FADDI PA070) [µg/mL]",CC50 at 24 h (in vitro) [µM]
CC(C)C[C@@H]1NC(=O)[C@@H](Cc2ccccc2)NC(=O)[C@H](CCN)NC(=O)[C@@H](NC(=O)[C@@H](CCN)NC(=O)[C@@H](NC(=O)c2cccc(-c3ccccc3)c2)[C@@H](C)O)CCNC(=O)[C@H]([C@@H](C)O)NC(=O)[C@H](CCN)NC(=O)[C@H](CCN)NC1=O [Compound 27] ({Benzoyl(3-Ph)}-T[dDab][Dab][Dab][dF]L[Dab][Dab]T; lactam 3-C),32,8,4,>32,16,>32,2,8,–,–,–,–,–,–,–,> 300
CCCCCCCC(=O)N[C@@H](CC(N)=O)C(=O)N[C@H](CCN)C(=O)N[C@H]1CCNC(=O)[C@H]([C@@H](C)O)NC(=O)[C@H](CCN)NC(=O)[C@H](CCN)NC(=O)[C@H](CC(C)C)NC(=O)[C@@H](Cc2ccccc2)NC(=O)[C@H](CCN)NC1=O [Compound 28] (Octanoyl-N[dDab][Dab][Dab][dF]L[Dab][Dab]T; lactam 3-C),>32,>32,32,>32,>32,>32,4,8,–,–,–,–,–,–,–,> 300
CC(C)C[C@@H]1NC(=O)[C@@H](Cc2ccccc2)NC(=O)[C@H](CCN)NC(=O)[C@@H](NC(=O)[C@@H](CCN)NC(=O)[C@@H](NC(=O)CCCOc2ccccc2)[C@@H](C)O)CCNC(=O)[C@H]([C@@H](C)O)NC(=O)[C@H](CCN)NC(=O)[C@H](CCN)NC1=O [Compound 26] ({Butanoyl(4-OPh)}-T[dDab][Dab][Dab][dF]L[Dab][Dab]T; lactam 3-C),4,1,1,16,1,>32,2,>32,–,–,–,–,–,–,–,> 300
CCCCCCCC(=O)N[C@@H](Cc1ccc(O)cc1)C(=O)N[C@H](CCN)C(=O)N[C@H]1CCNC(=O)[C@H]([C@@H](C)O)NC(=O)[C@H](CCN)NC(=O)[C@H](CCN)NC(=O)[C@H](CC(C)C)NC(=O)[C@@H](Cc2ccccc2)NC(=O)[C@H](CCN)NC1=O [Compound 29] (Octanoyl-Y[dDab][Dab][Dab][dF]L[Dab][Dab]T; lactam 3-C),>32,>32,16,>32,16,>32,4,8,–,–,–,–,–,–,–,> 300
CCCCCCCC(=O)N[C@@H](CCN)C(=O)N[C@H](C(=O)N[C@H](CCN)C(=O)N[C@H]1CCNC(=O)[C@H]([C@@H](C)O)NC(=O)[C@H](CCN)NC(=O)[C@H](CCN)NC(=O)[C@H](CC(C)C)NC(=O)[C@@H](Cc2ccccc2)NC(=O)[C@H](CCN)NC1=O)[C@@H](C)O [Compound 20] (Octanoyl-[Dab]T[dDab][Dab][Dab][dF]L[Dab][Dab]T; lactam 4-C),0.5,4,–,–,1,–,2,>32,–,–,–,–,–,–,–,183

# Second part, led by results:
MIC K. pneumoniae ATCC 13833 (K. pneumoniae ATCC 13833) [µg/mL],MIC K. pneumoniae BAA 2146 (K. pneumoniae BAA 2146) [µg/mL],MIC E. coli ATCC 25922 (E. coli ATCC 25922) [µg/mL],MIC A. baumannii ATCC 19606 (A. baumannii ATCC 19606) [µg/mL],MIC K. pneumoniae ATCC 700603 [1] [µg/mL],MIC S. aureus ATCC 25923 (S. aureus ATCC 25923) [µg/mL],MIC P. aeruginosa ATTC 27853 (P. aeruginosa ATTC 27853) [µg/mL],MIC P. aeruginosa FADDI PA070 [2] [µg/mL],"MIC (K. pneumoniae ATCC 13833; Klebsiella pneumoniae, ATCC13833, 18 h, read-out: MIC K. pneumoniae ATCC 13833) [µg/mL]","MIC (K. pneumoniae BAA 2146; Klebsiella pneumoniae, BAA2146, 18 h, read-out: MIC K. pneumoniae BAA 2146) [µg/mL]","MIC (A. baumannii ATCC 19606; Acinetobacter baumannii, ATCC19606, 18 h, read-out: MIC A. baumannii ATCC 19606) [µg/mL]","MIC ([1]; Klebsiella pneumoniae, ATCC700603, 18 h, read-out: MIC K. pneumoniae ATCC 700603) [µg/mL]","MIC (S. aureus ATCC 25923; Staphylococcus aureus, ATCC25923, 18 h, read-out: MIC S. aureus ATCC 25923) [µg/mL]","MIC (P. aeruginosa ATTC 27853; Pseudomonas aeruginosa, ATTC27853, 18 h, read-out: MIC P. aeruginosa ATTC 27853) [µg/mL]","MIC ([2]; Pseudomonas aeruginosa, FADDIPA070, 18 h, read-out: MIC P. aeruginosa FADDI PA070) [µg/mL]",SMILES,CC50 at 24 h (in vitro) [µM]
–,–,–,–,–,–,–,–,0.25,> 32,32,8,0.5,> 32,32,"CNC(C)C1CCC(N)C(OC2C(N)CC(N)C(OC3OCC(C)(O)C(NC)C3O)C2O)O1 (centres unmarked) [Gent, gentamicin, reference compound]",> 300
>32,>32,>32,>32,32,>32,4,>32,–,–,–,–,–,–,–,CCCCCCCC(=O)N[C@@H](CCC(=O)O)C(=O)N[C@H](CCN)C(=O)N[C@H]1CCNC(=O)[C@H]([C@@H](C)O)NC(=O)[C@H](CCN)NC(=O)[C@H](CCN)NC(=O)[C@H](CC(C)C)NC(=O)[C@@H](Cc2ccccc2)NC(=O)[C@H](CCN)NC1=O [Compound 32] (Octanoyl-E[dDab][Dab][Dab][dF]L[Dab][Dab]T; lactam 3-C),> 300
>32,>32,16,>32,32,>32,1,>32,–,–,–,–,–,–,–,CCCCCCCC(=O)NCC(=O)N[C@H](CCN)C(=O)N[C@H]1CCNC(=O)[C@H]([C@@H](C)O)NC(=O)[C@H](CCN)NC(=O)[C@H](CCN)NC(=O)[C@H](CC(C)C)NC(=O)[C@@H](Cc2ccccc2)NC(=O)[C@H](CCN)NC1=O [Compound 33] (Octanoyl-G[dDab][Dab][Dab][dF]L[Dab][Dab]T; lactam 3-C),262
>32,8,16,>32,8,>32,2,8,–,–,–,–,–,–,–,CCCCCCCC(=O)N[C@@H](CCO)C(=O)N[C@H](CCN)C(=O)N[C@H]1CCNC(=O)[C@H]([C@@H](C)O)NC(=O)[C@H](CCN)NC(=O)[C@H](CCN)NC(=O)[C@H](CC(C)C)NC(=O)[C@@H](Cc2ccccc2)NC(=O)[C@H](CCN)NC1=O [Compound 31] (Octanoyl-[hSer][dDab][Dab][Dab][dF]L[Dab][Dab]T; lactam 3-C),181
